Our source for the MIC values is DBAASP.

Values after ≈ are worked out from the molar mass of the structure shown. Some results are limits rather than exact numbers.

Among the test systems are Escherichia coli; Salmonella typhimurium; Pseudomonas aeruginosa; Staphylococcus aureus; Shigella dysenteriae; Proteus mirabilis; Klebsiella pneumoniae; Micrococcus luteus; Bacillus subtilis; Enterococcus faecalis; Acinetobacter baumannii.
Common to all, as to assay: ≥ marks a high value that may be exact or a test limit, other limits are often not marked, values filed in µg/mL are converted to µM
Assay [1] has as its system Staphylococcus epidermidis.

Turning to `CC(C)C[C@H](NC(=O)[C@H](C)NC(=O)CNC(=O)[C@H](CC(C)C)NC(=O)[C@@H](N)Cc1ccccc1)C(=O)N[C@@H](Cc1ccccc1)C(=O)N[C@@H](CCCCN)C(=O)N[C@H](C(=O)N[C@@H](C)C(=O)N[C@@H](CO)C(=O)N[C@@H](CCCCN)C(=O)N[C@H](C(=O)O)C(C)C)C(C)C` [FLGALFKVASKV], the minimum inhibitory concentration (MIC) in the assay on Escherichia coli is over 156 µM; against Salmonella typhimurium it was at least 156 µM; in the assay on Pseudomonas aeruginosa, over 156 µM; with Staphylococcus aureus, over 156 µM; in assay [1], at least 156 µM; with Shigella dysenteriae it was at least 156 µM. Moreover, the MIC against Proteus mirabilis is at least 156 µM; against Klebsiella pneumoniae, over 156 µM; in the assay with Micrococcus luteus, at least 156 µM; against Bacillus subtilis, at least 156 µM.

Consider `CC(C)C[C@H](NC(=O)[C@H](C)NC(=O)CNC(=O)[C@H](CC(C)C)NC(=O)[C@@H](N)Cc1ccccc1)C(=O)N[C@@H](Cc1ccccc1)C(=O)N[C@@H](CCCCN)C(=O)N[C@H](C(=O)N[C@@H](C)C(=O)N[C@@H](Cc1c[nH]c2ccccc12)C(=O)N[C@@H](CCCCN)C(=O)O)C(C)C` [FLGALFKVAWK], for which the MIC against Escherichia coli is 78.2 µM (≈ 100 µg/mL); in the assay with Salmonella typhimurium, at least 156 µM; against Pseudomonas aeruginosa, over 156 µM; in the assay on Staphylococcus aureus, 9.77 µM (≈ 12.5 µg/mL); in [1], at least 39.1 µM; with Shigella dysenteriae it was at least 78.2 µM. Also, the MIC with Proteus mirabilis was at least 156 µM; in the assay on Klebsiella pneumoniae it was 39.1 µM (≈ 50 µg/mL); with Micrococcus luteus, 19.5 µM (≈ 25 µg/mL); in the assay with Bacillus subtilis, 19.5 µM (≈ 25 µg/mL).

Consider `CC(C)C[C@H](NC(=O)[C@H](C)NC(=O)CNC(=O)[C@H](CC(C)C)NC(=O)[C@@H](N)Cc1ccccc1)C(=O)N[C@@H](Cc1ccccc1)C(=O)N[C@@H](CCCCN)C(=O)N[C@H](C(=O)N[C@@H](Cc1c[nH]c2ccccc12)C(=O)N[C@@H](CO)C(=O)N[C@@H](CCCCN)C(=O)O)C(C)C` [FLGALFKVWSK], for which the MIC in the assay with Escherichia coli was over 154 µM; with Salmonella typhimurium, at least 154 µM; against Pseudomonas aeruginosa it was over 154 µM; in the assay on Staphylococcus aureus, over 154 µM; in assay [1] it was at least 154 µM; against Shigella dysenteriae, at least 154 µM. In addition, the minimal inhibitory concentration (MIC) against Proteus mirabilis was at least 154 µM; in the assay with Klebsiella pneumoniae, over 154 µM; against Micrococcus luteus, at least 154 µM; with Bacillus subtilis, at least 154 µM.

As to `CC(C)C[C@H](NC(=O)[C@H](C)NC(=O)CN)C(=O)N[C@@H](Cc1ccccc1)C(=O)N[C@@H](CCCCN)C(=O)N[C@H](C(=O)N[C@@H](C)C(=O)N[C@@H](CO)C(=O)N[C@@H](CCCCN)C(=O)N[C@H](C(=O)N[C@@H](CC(C)C)C(=O)N1CCC[C@H]1C(=O)N[C@@H](CO)C(=O)O)C(C)C)C(C)C` [GALFKVASKVLPS], the MIC in the assay on Escherichia coli is over 152 µM; against Salmonella typhimurium, at least 152 µM; in the assay with Pseudomonas aeruginosa, over 152 µM; in the assay on Staphylococcus aureus it was over 152 µM; in [1], at least 152 µM; in the assay with Shigella dysenteriae, at least 152 µM. Further, the MIC is at least 152 µM with Proteus mirabilis, over 152 µM against Klebsiella pneumoniae, at least 152 µM against Micrococcus luteus and at least 152 µM against Bacillus subtilis.

As to `CC(C)C[C@H](NC(=O)[C@H](Cc1c[nH]c2ccccc12)NC(=O)[C@H](CCCCN)NC(=O)[C@H](CC(C)C)NC(=O)[C@H](CC(C)C)NC(=O)[C@H](CCCCN)NC(=O)[C@H](CCCN=C(N)N)NC(=O)[C@H](Cc1c[nH]c2ccccc12)NC(=O)[C@H](CCCCN)NC(=O)[C@@H](N)CCCCN)C(=O)N[C@@H](C)C(=O)N[C@@H](CCCCN)C(=O)N[C@@H](CCCCN)C(N)=O` [KKWRKLLKWLAKK], the MIC in the assay on Pseudomonas aeruginosa stood at 0.753 µM (≈ 1.3 µg/mL); against Staphylococcus aureus, 2.49 µM (≈ 4.3 µg/mL); in the assay with Enterococcus faecalis, 1.56 µM (≈ 2.7 µg/mL); in the assay on Acinetobacter baumannii it was 1.33 µM (≈ 2.3 µg/mL).

Broadly, the MIC is the lowest concentration that inhibits growth of the organism. Read a low MIC as greater potency.
